Key:
iNOS/Nos2 = experiment: RT-qPCR expression of iNOS/Nos2 in lung of young mice; format: in vivo, C57BL/6J mice; settings: diet supplemented from 8 to 22 weeks of age, treated vs YC
Text: C57BL/6J mice were obtained at 6 weeks of age and individually housed in shoebox cages and provided with 24 grams (˜84 kcal) of AIN-93^M diet per week (7 grams on Monday and Wednesday and 10 grams on Friday). Starting at 8 weeks of age and continuing until 22 weeks of age, mice were either 1) maintained on the AIN93^M diet (Young Controls, YC); 2) fed a Calorie Restricted (CR) diet providing 63 kcal/week of a modified AIN93^M formulation; or 3) were assigned to an AIN93^M diet supplemented with one of several plant extracts, vitamins or phytochemicals; the amount of each ingredient per kilogram diet varied depending on the experimental ingredient studied. At 22 weeks of age, tissues were collected from mice, flash-frozen in liquid nitrogen and stored at −80° C. for later analysis.
To determine if CR or an ingredient positively influenced the Nrf2 pathway to regulate expression of xenobiotic metabolism genes and oxidative stress genes and/or positively influenced genes responsible for regulation of inflammation, we performed quantitative real-time PCR (RT-qPCR) analysis on RNA isolated from entire livers and lungs from all groups of mice. Briefly, the magnitude of change was determined for each gene, comparing the young control (YC) group vs. the caloric or energy restriction (CR) group and YC vs. Treated mice. […]

GCLC = experiment: RT-qPCR expression of GCLC in gastrocnemius muscle of old mice; format: in vivo, B6C3F1 mice; settings: for effect on age-related decreases in the expression of GCLC: YC vs OC and OC vs old treated mice; for GCLC expression: diet supplemented from 14 to 30 months of age, old treated vs old controls (OC)
Text: (§1) B6C3F1 mice were obtained and housed as in Example 1. For the young control (YC) group, starting at 8 weeks of age and continuing until 22 weeks of age, mice were maintained on the AIN93^M diet; For the old animal groups, starting at 14 months of age and continuing until 30 months of age, mice were either 1) maintained on the AIN93^M diet (old controls, OC); 2) fed a calorie or energy restricted (CR) diet providing 63 kcal/week of a modified AIN93^M formulation; or 3) were assigned to an AIN93^M diet supplemented with one of several plant extracts, vitamins or phytochemicals; the amount of each ingredient per kilogram diet varied depending on the experimental ingredient studied. At the end of the feeding period, tissues were collected from the gastrocnemius muscles of the mice, flash-frozen in liquid nitrogen and stored at −80° C. for later analysis.
To determine if CR or an ingredient opposed age-related declines in the Nrf2 pathway to regulate expression of xenobiotic metabolism genes and oxidative stress genes, we performed quantitative real-time PCR (RT-qPCR) analysis on RNA isolated from gastrocnemius muscle from all groups of mice. The magnitude of change was determined for each gene (YC vs. OC and OC vs Old treated mice). Two-tailed t-tests (assuming equal variance) were used to determine if the change in expression for individual genes was statistically significant. The magnitude of the change in expression is reported as “fold change” values which are log 2-adjusted to fit normality assumptions for statistical analyses.
A panel of 5 genes representative of the Nrf2 pathway was selected for screening the ingredients: GCLM, GCLC, GSR, GSTA1, and NQO1. Ingredients screened in the muscle included: alpha lipoic acid, CoQ10, Pomegranate, Resveratrol and others.

[1] = system: Nrf2/ARE/detoxification related genes; experiment: RT-qPCR gene expression screening in liver of young mice fed ingredient-supplemented diet; format: in vivo, C57BL/6J mice; settings: diet supplemented from 8 to 22 weeks of age, treated vs young control (YC)
GSR = experiment: RT-qPCR expression of GSR in gastrocnemius muscle of old mice; format: in vivo, B6C3F1 mice
Text: as §1, with “analysis. To determine if CR or an ingredient opposed age-related declines in the Nrf2 pathway to regulate expression of xenobiotic metabolism genes and oxidative stress genes, we performed quantitative real-time PCR (RT-qPCR) analysis on RNA isolated from gastrocnemius muscle from all groups of mice. The magnitude of change was determined for each gene (YC vs. OC and OC vs Old treated mice). Two-tailed t-tests (assuming equal variance) were used to determine if the change in expression for individual genes was statistically significant. […]” for “analysis.”

Row | Compound | change in iNOS/Nos2 expression in the lung (iNOS/Nos2) | effect on age-related decreases in the expression of GCLC (GCLC) | GCLC expression (GCLC) | gene expression changes in the liver (impact of ingredient) [1] | effect on age-related decreases in the expression of GSR (GSR; YC vs OC and OC vs old treated mice) | GSR expression (GSR; diet supplemented from 14 to 30 months of age, old treated vs OC)
1 | COC1=C(OC)C(=O)C(C/C=C(\C)CC/C=C(\C)CC/C=C(\C)CC/C=C(\C)CC/C=C(\C)CC/C=C(\C)CC/C=C(\C)CC/C=C(\C)CC/C=C(\C)CCC=C(C)C)=C(C)C1=O [CoQ10, coenzyme Q10] | Modest downregulation | opposed age related decreases | upregulated | – | – | –
2 | O=C(O)CCCCC1CCSS1 (stereo not drawn) [alpha lipoic acid] | – | opposed age-related decreases | upregulated | greatest positive impact | opposed age-related decreases | upregulated
3 | O=c1c(O)c(-c2ccc(O)c(O)c2)oc2cc(O)cc(O)c12 [quercetin, Quercetin] | Modest downregulation | – | – | – | – | –

Reference: patent US20210290721A1, “ORAL FORMULATIONS FOR PROMOTING CELLULAR PURIFICATION” (NSE Products, Inc., priority 2011, published 2021)
